This assay has as its system BDF1 mice, P388 leukemia ip, median survival T/C. As to the kind of experiment: NCI In Vivo Anticancer Drug Screen. Data for tumor model P388 Leukemia (intraperitoneal) in B6D2F1 (BDF1) mice. The settings on record: endpoint: median survival time, higher = longer survival. The procedure, abridged:
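Each value expresses how treatment altered survival: treated-mouse outcome over vehicle-mouse outcome, both groups bearing the transplanted tumour.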

Where [1] appears, read: dose: 50.0 mg/kg/injection, schedule: Q01DX009 (ip), vehicle: saline with Tween-80.
[2] abbreviates: dose: 100.0 mg/kg/injection, schedule: Q01DX009 (ip), vehicle: saline with Tween-80.
The mark [3] stands for this setting: dose: 100.0 mg/kg/injection, schedule: Q04DX003 (ip), vehicle: saline with Tween-80.
Where [4] appears, read: dose: 200.0 mg/kg/injection, schedule: Q01DX009 (ip), vehicle: saline with Tween-80.
Where [5] appears, read: dose: 200.0 mg/kg/injection, schedule: Q04DX003 (ip), vehicle: saline with Tween-80.
[6] abbreviates: dose: 400.0 mg/kg/injection, schedule: Q01DX009 (ip), vehicle: saline with Tween-80.
[7] abbreviates: dose: 400.0 mg/kg/injection, schedule: Q04DX003 (ip), vehicle: saline with Tween-80.
The mark [8] stands for this setting: dose: 25.0 mg/kg/injection, schedule: Q01DX009 (ip), vehicle: saline with Tween-80.

Several values for one entry are separate records, joined by “and”; a condition that tells them apart may be missing. Equal entries are not always repeated. Toxic doses and inconclusive results are not listed. Non-standard residues stand in square brackets, D forms with d. Residues, ends and D or L forms follow the SMILES beside them. ξ: configuration not given here. Ac5c = NC1(C(=O)O)CCCC1; ξS = NC(CO)C(=O)O

As to `CCOC(=O)CN1C=C(C(=O)c2cc3ccccc3n2S(=O)(=O)c2ccccc2)CCC1`, the T/C is, setting by setting: (dose: 0.05 mg/kg/injection, schedule: Q01DX009 (ip), vehicle: saline) 104 % of control; (dose: 0.06 mg/kg/injection, schedule: Q01DX009 (ip), vehicle: saline) 105 % of control and 115 % of control; (dose: 0.1 mg/kg/injection, schedule: Q01DX009 (ip), vehicle: saline) 106 % of control; (dose: 0.12 mg/kg/injection, schedule: Q01DX009 (ip), vehicle: saline) 150 % of control; (dose: 0.13 mg/kg/injection, schedule: Q01DX009 (ip), vehicle: saline) 88 % of control; (dose: 0.2 mg/kg/injection, schedule: Q01DX009 (ip), vehicle: saline) 114 % of control. Besides, the T/C was 105 % of control and 110 % of control (dose: 0.25 mg/kg/injection, schedule: Q01DX009 (ip), vehicle: saline); 115 % of control (dose: 0.5 mg/kg/injection, schedule: Q01DX009 (ip), vehicle: saline); 100 % of control (dose: 1.0 mg/kg/injection, schedule: Q01DX009 (ip), vehicle: saline); 99 % of control and 105 % of control (dose: 2.0 mg/kg/injection, schedule: Q01DX009 (ip), vehicle: saline); 121 % of control (dose: 4.0 mg/kg/injection, schedule: Q01DX009 (ip), vehicle: saline); 104 % of control (dose: 8.0 mg/kg/injection, schedule: Q01DX009 (ip), vehicle: saline). For the same compound, the T/C runs as follows: (dose: 16.0 mg/kg/injection, schedule: Q01DX009 (ip), vehicle: saline) 109 % of control; (dose: 32.0 mg/kg/injection, schedule: Q01DX009 (ip), vehicle: saline) 106 % of control.

On to `COC1CC(O)C(O)C(C)O1` (stereo not given), for which the T/C runs as follows: under setting [1], 97 % of control; (dose: 50.0 mg/kg/injection, schedule: Q01DX009 (ip), vehicle: saline) 100 % of control; under setting [2], 95 % of control; (dose: 100.0 mg/kg/injection, schedule: Q01DX009 (ip), vehicle: saline) 107 % of control; under setting [3], 106 % of control; under setting [4], 100 % of control. For the same compound, the T/C by setting is: (dose: 200.0 mg/kg/injection, schedule: Q01DX009 (ip), vehicle: saline) 118 % of control; under setting [5], 101 % of control; under setting [6], 95 % of control; (dose: 400.0 mg/kg/injection, schedule: Q01DX009 (ip), vehicle: saline) 99 % of control; under setting [7], 99 % of control.

For the compound `CCN(O)C(N)=O`, the T/C is 108 % of control under setting [2]; 96 % of control and 104 % of control under setting [3]; 100 % of control under setting [4]; 88 % of control and 91 % of control under setting [5]; 100 % of control under setting [6]; 96 % of control and 100 % of control under setting [7].

In the case of `[O-][n+]1c(CCl)nc2ccccc2c1-c1ccccc1F`, the T/C runs as follows: under setting [1], 118 % of control; under setting [2], 105 % of control.

In the case of `COC(=O)C1C2C(C)CC3(CC12C)OCCO3` (stereo not given), the T/C reads like this: under setting [3], 90 % of control; under setting [5], 109 % of control; under setting [7], 100 % of control.

For `O=C(O)C1CC2CCC1C2` (stereo not given), the T/C was 100 % of control (dose: 100.0 mg/kg/injection, schedule: Q01DX001 (ip), vehicle: saline with Tween-80); 95 % of control (dose: 200.0 mg/kg/injection, schedule: Q01DX001 (ip), vehicle: saline with Tween-80); 100 % of control (dose: 400.0 mg/kg/injection, schedule: Q01DX001 (ip), vehicle: saline with Tween-80).

Take `N#CC1CCCCC1C1(C#N)CCCCC1Cc1ccc2ccccc2n1` (stereo not given): the T/C (dose: 100.0 mg/kg/injection, schedule: Q04DX002 (ip), vehicle: saline with Tween-80) was 96 % of control; the T/C (dose: 200.0 mg/kg/injection, schedule: Q04DX002 (ip), vehicle: saline with Tween-80) is 104 % of control; the T/C (dose: 400.0 mg/kg/injection, schedule: Q04DX002 (ip), vehicle: saline with Tween-80) was 107 % of control.

Consider `CN1C(=O)CC2(CCN(CCCC(=O)c3ccc(F)cc3)CC2)C1=O`, for which the T/C (dose: 6.25 mg/kg/injection, schedule: Q01DX009 (ip), vehicle: saline with Tween-80) is 116 % of control; the T/C (dose: 12.5 mg/kg/injection, schedule: Q01DX009 (ip), vehicle: saline with Tween-80) was 107 % of control; the T/C (dose: 25.0 mg/kg/injection, schedule: Q01DX009 (ip), vehicle: Klucel (hydroxypropylcellulose) (HPC)) was 118 % of control; the T/C under setting [8] is 124 % of control; the T/C (dose: 50.0 mg/kg/injection, schedule: Q01DX009 (ip), vehicle: Klucel (hydroxypropylcellulose) (HPC)) was 120 % of control; the T/C under setting [1] is 97 % of control.

As for `COC(=O)C[CH2][Pb]([c]1ccccc1)([c]1ccccc1)[c]1ccccc1`, the T/C was 106 % of control under setting [8] and 98 % of control under setting [1].

As for `NC(CO)C(=O)NC1(C(=O)O)CCCC1` (stereo not given) (H-[ξS]-[Ac5c]-OH), the T/C reads like this: under setting [2], 109 % of control; under setting [4], 118 % of control; under setting [6], 95 % of control.

Regarding `COc1cccc(/C=C/C(=O)c2ccc(Cl)cc2)c1OC`, the T/C (dose: 50.0 mg/kg/injection, schedule: Q01DX009 (ip), vehicle: other) is 95 % of control; the T/C (dose: 100.0 mg/kg/injection, schedule: Q01DX009 (ip), vehicle: other) was 104 % of control; the T/C under setting [2] is 100 % of control; the T/C (dose: 200.0 mg/kg/injection, schedule: Q01DX009 (ip), vehicle: other) was 95 % of control; the T/C under setting [6] is 100 % of control.

Regarding `COc1cc(C=Nc2cc(Cl)ccc2-n2ccnc2C)ccc1N(CCCl)CCCl`, the T/C by setting is: (dose: 21.0 mg/kg/injection, schedule: Q04DX003 (ip), vehicle: saline with Tween-80) 170 % of control; (dose: 33.0 mg/kg/injection, schedule: Q04DX003 (ip), vehicle: saline with Tween-80) 235 % of control; (dose: 50.0 mg/kg/injection, schedule: Q04DX003 (ip), vehicle: saline with Tween-80) 170 % of control; (dose: 75.0 mg/kg/injection, schedule: Q04DX003 (ip), vehicle: saline with Tween-80) 178 % of control.

Consider `CC1(C(=O)O)CCC2(C)CCC3(C)C(=CC(=O)C4C5(C)CCC(OC6OC(C(=O)O)C(O)C(O)C6OC6OC(C(=O)O)C(O)C(O)C6O)C(C)(C)C5CCC43C)C2C1` (stereo not given), for which the T/C is, setting by setting: (dose: 100.0 mg/kg/injection, schedule: Q04DX003 (ip), vehicle: alcohol) 104 % of control; (dose: 200.0 mg/kg/injection, schedule: Q04DX003 (ip), vehicle: alcohol) 104 % of control; (dose: 400.0 mg/kg/injection, schedule: Q04DX003 (ip), vehicle: alcohol) 90 % of control.

Source of the values: PubChem BioAssay AID328 (DTP/NCI, 2004).
